According to the NIST ThermoML archive (doi:10.1021/je5001796):

Test: xn = mol fraction of the nth substance listed
Details: 101 kPa, Liquid, Vibrating tube method, x2 = 0.3333

NC(N)=O [urea] + C[N+](C)(C)CCO.[Cl-]
Details	mass density [kg/m3]
293.15 K	1200.1
303.15 K	1194.5
313.15 K	1188.7
323.15 K	1183.1
333.15 K	1177.3
343.15 K	1170.8
353.15 K	1163.5
363.15 K	1155.4
